# Experimental data published in patent US12139520B2 (priority 2020, dated 2024).
# pEC50: −log10 of the molar value. Bridge positions count the residues as written; N and C are the ends. Square brackets hold non-standard residues; d marks the D form. Peptide text beside a SMILES is read from it. Hyp = O=C(O)[C@@H]1C[C@@H](O)CN1; Cit = NC(=O)NCCC[C@H](N)C(=O)O
# What was measured:
# hAMY3 receptor = molecular target: T1, hAMY3 receptor (Homo sapiens, UniProt O60896+P30988); assay: cAMP assay for in vitro receptor activation, hAMY3-R; type: cell-based; settings: cAMP assay, hAMY3 receptor; read-out: hAMY3R EC50
# T1 sequence (P30988 25-474): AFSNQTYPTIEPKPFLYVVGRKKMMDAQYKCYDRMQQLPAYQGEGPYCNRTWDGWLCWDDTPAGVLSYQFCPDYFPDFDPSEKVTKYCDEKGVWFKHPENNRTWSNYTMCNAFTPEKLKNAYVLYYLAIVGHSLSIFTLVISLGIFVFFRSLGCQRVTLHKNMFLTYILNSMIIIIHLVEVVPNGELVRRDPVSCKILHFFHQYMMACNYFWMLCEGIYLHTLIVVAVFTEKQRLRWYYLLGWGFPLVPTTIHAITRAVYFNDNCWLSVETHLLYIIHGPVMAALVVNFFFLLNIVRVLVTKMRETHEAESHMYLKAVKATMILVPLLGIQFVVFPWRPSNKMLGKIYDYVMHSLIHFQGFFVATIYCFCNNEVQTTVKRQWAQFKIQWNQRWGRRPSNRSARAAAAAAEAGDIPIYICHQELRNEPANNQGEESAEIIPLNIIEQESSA
# T1 sequence (O60896 24-148 partner): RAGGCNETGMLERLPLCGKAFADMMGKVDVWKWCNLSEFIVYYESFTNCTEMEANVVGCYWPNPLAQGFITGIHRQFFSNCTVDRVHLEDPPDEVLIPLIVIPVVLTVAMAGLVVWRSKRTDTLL
# How it was run: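 Accumulated cAMP was detected by time-resolved FRET one hour after reagent addition. Beforehand, hAMY3-R-overexpressing monoclonal cells (2000/well, DPBS, 0.05% casein, 0.5 mM IBMX) received graded doses of compound for 30 min at room temperature; human amylin served as positive control.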
# hAM1 receptor = hAM1 receptor (Homo sapiens, UniProt O60895+Q16602); assay: cAMP assay for in vitro receptor activation, hAM1-R; type: cell-based; settings: cAMP assay, hAM1 receptor; read-out: hAM1R EC50
# How it was run: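 Monoclonal stable hAM1-overexpressing cells, thawed from frozen stock; 8000 cells/well in DPBS + 0.05% casein + 0.5 mM IBMX; read-out cAMP.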
# [1] = Physical stability of peptide analogues (Thioflavin T fibrillation); type: physicochemical; settings: maximum ThT signal normalized between hAMY maximum and buffer background; 40° C., shaking, four days; pH 7 per table title
# How it was run: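 Maximum ThT emission at 480 nm, after LOESS smoothing, is given as percent of the span from buffer background to hAMY. Conditions: 50 mM buffer at pH 4 or 7, 4 μM dye, 40 °C, repeated shaking, readings every 10 min for four days.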
# Sequence of hAM1 receptor (Q16602 23-461): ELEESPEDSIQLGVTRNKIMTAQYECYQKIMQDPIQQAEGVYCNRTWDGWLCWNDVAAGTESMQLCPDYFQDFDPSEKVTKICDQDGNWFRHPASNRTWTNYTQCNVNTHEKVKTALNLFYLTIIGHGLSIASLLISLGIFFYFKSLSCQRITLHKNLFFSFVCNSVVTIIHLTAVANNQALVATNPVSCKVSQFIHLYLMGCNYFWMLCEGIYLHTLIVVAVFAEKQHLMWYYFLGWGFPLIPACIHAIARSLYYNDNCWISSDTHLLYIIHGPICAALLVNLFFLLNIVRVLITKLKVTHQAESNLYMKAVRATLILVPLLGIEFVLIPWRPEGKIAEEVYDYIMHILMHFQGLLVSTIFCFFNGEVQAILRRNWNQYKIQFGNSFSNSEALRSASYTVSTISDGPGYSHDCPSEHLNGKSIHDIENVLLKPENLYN
# Sequence of hAM1 receptor (O60895 43-175 partner): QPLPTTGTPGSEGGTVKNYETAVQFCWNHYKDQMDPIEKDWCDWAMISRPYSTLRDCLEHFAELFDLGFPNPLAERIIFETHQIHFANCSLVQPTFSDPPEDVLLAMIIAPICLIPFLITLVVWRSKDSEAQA
pEC50 (hAMY3 receptor),pEC50 (hAM1 receptor),Max ThT signal (%) [1] [%],Structure (SMILES)
11.00,< 5.30,6.300,CC[C@H](C)[C@H](NC(=O)[C@H](CCC(N)=O)NC(=O)[C@H](Cc1c[nH]cn1)NC(=O)[C@H](C)NC(=O)[C@H](CC(C)C)NC(=O)[C@H](CCCNC(=N)N)NC(=O)[C@H](CCC(N)=O)NC(=O)[C@@H](NC(=O)[C@@H](NC(=O)[C@@H]1CSSC[C@H](NC(=O)[C@@H](N)CCCCN)C(=O)N[C@@H](CC(N)=O)C(=O)N[C@@H]([C@@H](C)O)C(=O)N[C@@H](C)C(=O)N[C@@H]([C@@H](C)O)C(=O)N1)[C@@H](C)O)C(C)C)C(=O)N[C@@H](Cc1ccc(O)cc1)C(=O)N[C@@H](C)C(=O)N[C@@H](Cc1ccccc1)C(=O)N[C@H](C(=O)N[C@@H](CC(=O)O)C(=O)N[C@@H](CCCCN)C(=O)N[C@@H](CC(=O)O)C(=O)N[C@@H](CCCCN)C(=O)N[C@@H](CC(=O)O)C(=O)N[C@@H](CC(N)=O)C(=O)N[C@H](C(=O)N[C@@H](C)C(=O)N1CCC[C@H]1C(=O)N1CCC[C@H]1C(=O)N[C@H](C(=O)N[C@@H](CC(N)=O)C(=O)N[C@H](C(=O)NCC(=O)N[C@@H](CO)C(=O)N[C@@H](CC(N)=O)C(=O)NCC(=O)N1C[C@H](O)C[C@H]1C(N)=O)C(C)C)[C@@H](C)O)C(C)C)[C@@H](C)O [compound 42] (H-KCNTATCTVQRLAHQIYAFTDKDKDNVAPPTNVGSNG[Hyp]-NH2; disulfide 2-7; N-terminus assumed)
10.92,< 5.30,17.000,CC[C@H](C)[C@H](NC(=O)[C@H](CCC(N)=O)NC(=O)[C@H](Cc1c[nH]cn1)NC(=O)[C@H](C)NC(=O)[C@H](CC(C)C)NC(=O)[C@H](Cc1c[nH]c2ccccc12)NC(=O)[C@H](CCC(N)=O)NC(=O)[C@@H](NC(=O)[C@@H](NC(=O)[C@@H]1CSSC[C@H](NC(=O)[C@@H](N)CCCCN)C(=O)N[C@@H](CC(N)=O)C(=O)N[C@@H]([C@@H](C)O)C(=O)N[C@@H](C)C(=O)N[C@@H]([C@@H](C)O)C(=O)N1)[C@@H](C)O)C(C)C)C(=O)N[C@@H](Cc1ccc(O)cc1)C(=O)N[C@@H](CCC(N)=O)C(=O)N[C@@H](Cc1ccccc1)C(=O)N[C@H](C(=O)N[C@@H](CC(=O)O)C(=O)N[C@@H](CCCCN)C(=O)N[C@@H](CC(=O)O)C(=O)N[C@@H](CCCCN)C(=O)N[C@@H](CC(=O)O)C(=O)N[C@@H](CC(N)=O)C(=O)N[C@H](C(=O)N[C@@H](C)C(=O)N1CCC[C@H]1C(=O)N[C@@H](CCCNC(=N)N)C(=O)N[C@H](C(=O)N[C@@H](CCCCN)C(=O)N[C@H](C(=O)NCC(=O)N[C@@H](CO)C(=O)N[C@@H](CC(N)=O)C(=O)NCC(=O)N1C[C@H](O)C[C@H]1C(N)=O)C(C)C)[C@@H](C)O)C(C)C)[C@@H](C)O [compound 312] (H-KCNTATCTVQWLAHQIYQFTDKDKDNVAPRTKVGSNG[Hyp]-NH2; disulfide 2-7; N-terminus assumed)
11.05,< 5.30,14.900,CC[C@H](C)[C@H](NC(=O)[C@H](CCC(N)=O)NC(=O)[C@H](Cc1c[nH]cn1)NC(=O)[C@H](C)NC(=O)[C@H](CC(C)C)NC(=O)[C@H](Cc1c[nH]c2ccccc12)NC(=O)[C@H](CCC(N)=O)NC(=O)[C@@H](NC(=O)[C@@H](NC(=O)[C@@H]1CSSC[C@H](NC(=O)[C@@H](N)CCCCN)C(=O)N[C@@H](CC(N)=O)C(=O)N[C@@H]([C@@H](C)O)C(=O)N[C@@H](C)C(=O)N[C@@H]([C@@H](C)O)C(=O)N1)[C@@H](C)O)C(C)C)C(=O)N[C@@H](Cc1ccc(O)cc1)C(=O)N[C@@H](CCC(N)=O)C(=O)N[C@@H](Cc1ccccc1)C(=O)N[C@H](C(=O)N[C@@H](CC(=O)O)C(=O)N[C@@H](CCCCN)C(=O)N[C@@H](CC(=O)O)C(=O)N[C@@H](CCCCN)C(=O)N[C@@H](CC(=O)O)C(=O)N[C@@H](CC(N)=O)C(=O)N[C@H](C(=O)N1CCC[C@H]1C(=O)N1CCC[C@H]1C(=O)N[C@H](C(=O)N[C@@H](CC(N)=O)C(=O)N[C@H](C(=O)NCC(=O)N[C@@H](CO)C(=O)N[C@@H](CC(N)=O)C(=O)NCC(=O)N1C[C@H](O)C[C@H]1C(N)=O)C(C)C)[C@@H](C)O)C(C)C)[C@@H](C)O [compound 318] (H-KCNTATCTVQWLAHQIYQFTDKDKDNVPPTNVGSNG[Hyp]-NH2; disulfide 2-7; N-terminus assumed)
10.04,< 5.30,0.600,CC[C@H](C)[C@H](NC(=O)[C@H](CCC(N)=O)NC(=O)[C@H](Cc1c[nH]cn1)NC(=O)[C@H](C)NC(=O)[C@H](CC(C)C)NC(=O)[C@H](CCCNC(=N)N)NC(=O)[C@H](CCC(N)=O)NC(=O)[C@@H](NC(=O)[C@@H](NC(=O)[C@@H]1CSSC[C@H](NC(=O)CN)C(=O)N[C@@H](CCCNC(=N)N)C(=O)N[C@@H]([C@@H](C)O)C(=O)NCC(=O)N[C@@H]([C@@H](C)O)C(=O)N1)[C@@H](C)O)C(C)C)C(=O)N[C@@H](Cc1ccc(O)cc1)C(=O)N[C@@H](CCC(N)=O)C(=O)N[C@@H](Cc1ccccc1)C(=O)N[C@H](C(=O)N[C@@H](CC(=O)O)C(=O)N[C@@H](CCCCN)C(=O)N[C@@H](Cc1ccccc1)C(=O)N[C@@H](CCCCN)C(=O)N[C@@H](CC(=O)O)C(=O)N[C@@H](CC(N)=O)C(=O)N[C@H](C(=O)N[C@@H](C)C(=O)N1CCC[C@H]1C(=O)N[C@@H](CCCNC(=N)N)C(=O)N[C@@H](CO)C(=O)N[C@@H](CCCCN)C(=O)N[C@H](C(=O)N[C@@H](CO)C(=O)N1CCC[C@H]1C(=O)N[C@@H](CCC(N)=O)C(=O)N[C@@H](Cc1ccc(O)cc1)C(=O)N1C[C@H](O)C[C@H]1C(N)=O)[C@@H](C)CC)C(C)C)[C@@H](C)O [compound 186] (H-GCRTGTCTVQRLAHQIYQFTDKFKDNVAPRSKISPQY[Hyp]-NH2; disulfide 2-7; N-terminus assumed)
10.27,< 5.30,19.800,CC[C@H](C)[C@H](NC(=O)[C@H](CCC(N)=O)NC(=O)[C@H](Cc1c[nH]cn1)NC(=O)[C@H](C)NC(=O)[C@H](CC(C)C)NC(=O)[C@H](Cc1c[nH]c2ccccc12)NC(=O)[C@H](CCC(N)=O)NC(=O)[C@@H](NC(=O)[C@@H](NC(=O)[C@@H]1CSSC[C@H](NC(=O)CN)C(=O)N[C@@H](CCCNC(=N)N)C(=O)N[C@@H]([C@@H](C)O)C(=O)NCC(=O)N[C@@H]([C@@H](C)O)C(=O)N1)[C@@H](C)O)C(C)C)C(=O)N[C@@H](Cc1ccc(O)cc1)C(=O)N[C@@H](CCC(N)=O)C(=O)N[C@@H](Cc1ccccc1)C(=O)N[C@H](C(=O)N[C@@H](CC(=O)O)C(=O)N[C@@H](CCCCN)C(=O)N[C@@H](CC(=O)O)C(=O)N[C@@H](CCCCN)C(=O)N[C@@H](CC(=O)O)C(=O)N[C@@H](CC(N)=O)C(=O)N[C@H](C(=O)N[C@@H](C)C(=O)N1CCC[C@H]1C(=O)N[C@@H](CCCNC(=N)N)C(=O)N[C@@H](CO)C(=O)N[C@@H](CC(N)=O)C(=O)N[C@H](C(=O)NCC(=O)N1CCC[C@H]1C(=O)N[C@@H](CCC(N)=O)C(=O)NCC(=O)N1C[C@H](O)C[C@H]1C(N)=O)C(C)C)C(C)C)[C@@H](C)O [compound 342] (H-GCRTGTCTVQWLAHQIYQFTDKDKDNVAPRSNVGPQG[Hyp]-NH2; disulfide 2-7)
10.19,< 5.30,19.200,CC[C@H](C)[C@H](NC(=O)[C@H](CCC(N)=O)NC(=O)[C@H](Cc1c[nH]cn1)NC(=O)[C@H](C)NC(=O)[C@H](CC(C)C)NC(=O)[C@H](CCCNC(N)=O)NC(=O)[C@H](CCC(N)=O)NC(=O)[C@@H](NC(=O)[C@@H](NC(=O)[C@@H]1CSSC[C@H](NC(=O)CN)C(=O)N[C@@H](CCCNC(=N)N)C(=O)N[C@@H](Cc2ccccc2)C(=O)NCC(=O)N[C@@H]([C@@H](C)O)C(=O)N1)[C@@H](C)O)C(C)C)C(=O)N[C@@H](Cc1ccc(O)cc1)C(=O)N[C@@H](CCC(N)=O)C(=O)N[C@@H](Cc1ccccc1)C(=O)N[C@H](C(=O)N[C@@H](CC(=O)O)C(=O)N[C@@H](CCCCN)C(=O)N[C@@H](CC(=O)O)C(=O)N[C@@H](CCCCN)C(=O)N[C@@H](CC(=O)O)C(=O)N[C@@H](CC(N)=O)C(=O)N[C@H](C(=O)N[C@@H](C)C(=O)N1CCC[C@H]1C(=O)N[C@@H](CCCNC(=N)N)C(=O)N[C@H](C(=O)N[C@@H](CC(N)=O)C(=O)N[C@H](C(=O)N[C@@H](CO)C(=O)N1CCC[C@H]1C(=O)N[C@@H](CCC(N)=O)C(=O)NCC(=O)N1C[C@H](O)C[C@H]1C(N)=O)[C@@H](C)CC)[C@@H](C)O)C(C)C)[C@@H](C)O [compound 291] (H-GCRFGTCTVQ[Cit]LAHQIYQFTDKDKDNVAPRTNISPQG[Hyp]-NH2; disulfide 2-7)
